Reference: PMC6367500, “18β-glycyrrhetyl-3-O-sulfate would be a causative agent of licorice-induced pseudoaldosteronism” (Scientific Reports, 2019)
Where two headings read alike, the source gives them in different places.

Tests used:
OAT1 [1] = biological target: T1, OAT1 (Homo sapiens, UniProt Q4U2R8); conditions: cited from earlier work
T1 construct: expressed in transfected cells; host or cells: MDCK II cells
T1 sequence (Q4U2R8 1-563): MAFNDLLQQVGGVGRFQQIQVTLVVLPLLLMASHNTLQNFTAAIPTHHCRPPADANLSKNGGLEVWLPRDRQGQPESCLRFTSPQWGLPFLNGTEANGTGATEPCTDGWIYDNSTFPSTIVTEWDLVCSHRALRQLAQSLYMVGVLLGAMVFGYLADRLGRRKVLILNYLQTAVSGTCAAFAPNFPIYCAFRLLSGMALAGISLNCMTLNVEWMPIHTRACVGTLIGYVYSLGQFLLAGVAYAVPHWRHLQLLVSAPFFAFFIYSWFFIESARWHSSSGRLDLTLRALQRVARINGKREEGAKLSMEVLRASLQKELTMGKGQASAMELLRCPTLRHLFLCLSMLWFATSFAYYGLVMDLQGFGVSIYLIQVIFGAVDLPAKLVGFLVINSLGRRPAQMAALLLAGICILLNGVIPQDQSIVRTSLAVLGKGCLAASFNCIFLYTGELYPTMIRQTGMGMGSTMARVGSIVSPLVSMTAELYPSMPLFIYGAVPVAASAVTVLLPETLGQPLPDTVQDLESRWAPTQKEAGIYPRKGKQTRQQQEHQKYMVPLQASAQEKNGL

OAT3 [2] = biological target: T2, OAT3 (Homo sapiens, UniProt Q8TCC7); conditions: cited from earlier work
T2 construct: expressed in transfected cells; host or cells: MDCK II cells
T2 sequence (Q8TCC7 1-542): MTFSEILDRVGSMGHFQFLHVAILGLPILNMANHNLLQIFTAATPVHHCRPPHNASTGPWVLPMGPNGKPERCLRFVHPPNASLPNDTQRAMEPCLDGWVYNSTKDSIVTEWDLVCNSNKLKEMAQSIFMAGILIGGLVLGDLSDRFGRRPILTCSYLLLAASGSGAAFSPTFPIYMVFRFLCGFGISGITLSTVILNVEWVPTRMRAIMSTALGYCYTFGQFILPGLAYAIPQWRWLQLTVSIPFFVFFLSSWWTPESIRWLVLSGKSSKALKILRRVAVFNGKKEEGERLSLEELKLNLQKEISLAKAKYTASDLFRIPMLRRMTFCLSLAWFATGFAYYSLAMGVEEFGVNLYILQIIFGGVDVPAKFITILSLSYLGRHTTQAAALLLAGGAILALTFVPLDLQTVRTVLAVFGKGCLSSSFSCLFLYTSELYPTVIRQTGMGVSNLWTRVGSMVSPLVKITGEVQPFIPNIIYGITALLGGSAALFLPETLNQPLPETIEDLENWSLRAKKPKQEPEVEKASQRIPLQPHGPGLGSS

[3] = biological target: T3, rat type 2 11β-hydroxysteroid dehydrogenase (11β-HSD2) (Rattus norvegicus, UniProt P50233); conditions: rat kidney microsome fraction; cited from earlier work
T3 construct: each compound were mixed with the rat kidney microsome fraction, and incubated at 37 °C for 30 min; from tissue; host or cells: rat kidney microsome fraction
T3 sequence (P50233 1-400): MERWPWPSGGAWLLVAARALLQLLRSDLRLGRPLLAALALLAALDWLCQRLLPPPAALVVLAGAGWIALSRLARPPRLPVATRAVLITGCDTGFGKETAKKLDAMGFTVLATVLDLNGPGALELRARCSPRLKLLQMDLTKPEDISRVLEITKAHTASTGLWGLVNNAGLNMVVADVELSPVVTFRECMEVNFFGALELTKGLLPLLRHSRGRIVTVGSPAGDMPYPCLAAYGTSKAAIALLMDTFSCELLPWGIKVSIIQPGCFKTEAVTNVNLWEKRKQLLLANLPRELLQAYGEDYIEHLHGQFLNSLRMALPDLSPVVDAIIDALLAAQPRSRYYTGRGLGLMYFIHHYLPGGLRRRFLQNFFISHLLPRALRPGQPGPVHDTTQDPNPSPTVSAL

OAT3 [4] = biological target: T2, OAT3; experiment: Uptake into MDCK II cells stably expressing OAT3; assay type: cell-based; conditions: pooled EHBR plasma, pH 5.5, 37 °C, 15 min
Procedure: (§1) Kidneys were collected from normal SD rats, and the kidney slices were incubated with the plasma samples of EHBRs at 37 °C or 4 °C for 2 h (A–C). MDCK II cells stably expressing OAT1 or OAT3 were incubated with the plasma samples of EHBRs at 37 °C for 15 min (D–F). […] Data are expressed as mean ± S.E. (n = 3 for (C, D), and (E); n = 6 for (A, B), and F). *P < 0.05 and **P < 0.01 vs 4 °C group by Student’s t-test for (A–C), and vs mock cells by Dunnett’s multiple t-test for (D–F).
(§2) Uptake studies using rat kidney slices and cells stably expressing OAT1 and OAT3 were conducted with the same protocol as in our previous study.

[5] = biological target: T3, rat type 2 11β-hydroxysteroid dehydrogenase (11β-HSD2); experiment: Inhibition of 11β-HSD2 in rat kidney microsome fraction; assay type: biochemical; conditions: for IC50: 37 °C, 30 min
Procedure: Compounds 2 and 3 inhibited 11β-HSD2 in a rat kidney microsome fraction in a concentrations-dependent manner (Fig. 2).
Figure 2 Inhibitory effects of 2 and 3 on 11β-HSD2 using rat kidney microsome. [^3H] cortisone and each compound were mixed with the rat kidney microsome fraction, and incubated at 37 °C for 30 min. Then, the amount of [^3H] cortisol was measured. Data are expressed as mean ± S.E. (n = 4) of the percentage relative to the amount of [^3H] cortisol in the mixture without samples. **P < 0.01 and ***P < 0.001 compared with the groups without the samples by Dunnett’s multiple t-test for compounds 2 and 3, and by Student’s t-test for GA.
Assays were conducted as described by Diederich et al.[20] with slight modifications as described in our previous report.

OAT1 [6] = biological target: T1, OAT1; experiment: Uptake into MDCK II cells stably expressing OAT1; assay type: cell-based; conditions: pooled EHBR plasma, pH 5.5, 37 °C, 15 min
Procedure: as §1, §2

Row | uptake into cells expressing OAT3 compared with mock cells (OAT3 [4]) | inhibitory titer on 11β-HSD2 compared with GA [5] | IC50 [5] [nM] | uptake into cells expressing OAT1 compared with mock cells (OAT1 [6]) | Compound | substrate of OAT1 (OAT1 [1]) | substrate of OAT3 (OAT3 [2]) | IC50 [3] [nM]
1 |  |  |  |  | CC1(C)[C@@H](O[C@@H]2O[C@H](C(=O)O)[C@@H](O)[C@H](O)[C@H]2O)CC[C@]2(C)[C@H]3C(=O)C=C4[C@@H]5C[C@@](C)(C(=O)O)CC[C@]5(C)CC[C@@]4(C)[C@]3(C)CC[C@@H]12 [3MGA, 3-monoglucuronyl glycyrrhetinic acid, reference compound] | substrate | substrate | 250
2 |  |  |  |  | CC1(C)[C@@H](OS(=O)(=O)O)CC[C@]2(C)[C@H]3C(=O)C=C4[C@@H]5C[C@@](C)(C(=O)O[C@@H]6O[C@H](C(=O)O)[C@@H](O)[C@H](O)[C@H]6O)C[C@H](O)[C@]5(C)CC[C@@]4(C)[C@]3(C)CC[C@@H]12 [compound 1, 22α-hydroxy-18β-glycyrrhetyl-3-O-sulfate-30-glucuronide] | substrate | substrate | 2000
3 | significantly higher | slightly higher than that of GA | 110 | significantly higher | CC1(C)[C@@H](OS(=O)(=O)O)CC[C@]2(C)[C@H]3C(=O)C=C4[C@@H]5C[C@@](C)(C(=O)O)C[C@H](O)[C@]5(C)CC[C@@]4(C)[C@]3(C)CC[C@@H]12 [compound 2, 22α-hydroxy-18β-glycyrrhetyl-3-O-sulfate] |  |  | 
4 | significantly higher | slightly higher than that of GA | 100 | significantly higher | CC1(C)[C@@H](OS(=O)(=O)O)CC[C@]2(C)[C@H]3C(=O)C=C4[C@@H]5C[C@@](C)(C(=O)O)CC[C@]5(C)CC[C@@]4(C)[C@]3(C)CC[C@@H]12 [compound 3, 18β-glycyrrhetyl-3-O-sulfate] |  |  | 
